In patent publication US20210063414A1, “METHODS FOR PREVENTING AND/OR TREATING BONE LOSS CONDITIONS BY MODULATING IRISIN” (Dana-Farber Cancer Institute, Inc., priority 2018, published 2021):

Biological target: T1, integrin αV/β5 (Homo sapiens, UniProt P06756+P18084)
T1 construct: expressed in transfected cells; host or cells: HEK293T
Experiment: FAK phosphorylation in HEK293T cells with forced expression of integrin αV/β5
Assay type: cell-based
Experimental: 100 nM irisin was incubated with 5 nM indicated his-tag integrins followed by immunoprecipitation using Ni-NTA agaroses. Precipitated integrins and co-precipitated irisin were analyzed by immunoblot analysis. […] HEK293T cells were seeded and incubated until 50% cell density. The cells were transfected with 0.1 μg plasmids of indicated integrins. After 48 hours, the cells were incubated with Freestyle293 medium for 3 hours and were treated with indicated concentration of irisin for 5 minutes. Cells were lysed to detect the indicated protein level using immunoblot analysis. […] MLO-Y4 cells were treated as described in FIG. 2D with addition of pretreatment of indicated antagonistic antibodies for 10 minutes. Cells were lysed to detect the indicated protein level using immunoblot analysis. […] MLO-Y4 cells were treated as described in FIG. 1B except with addition of the pretreatment of indicated antagonistic antibodies for 10 minutes. Sclerostin mRNA level was analyzed by qRT-PCR. Cyclophilin was used for house-keeping gene. […] The ribbon diagram is colored by HDX stabilization/destabilization. Percentages of deuterium differences are color-coded according to the smooth color gradient key at the bottom. Crystal structure of irisin dimer is from Protein Data Bank (PDB) (4 lsd) and a homology model of integrin β5 was built based on integrin β3 structure from PDB (4MMX).
100 nM irisin was incubated with 5 nM indicated his-tag integrins followed by immunoprecipitation using Ni-NTA agaroses. Precipitated integrins and co-precipitated irisin were analyzed by immunoblot analysis. […] HEK293T cells were seeded and incubated until 50% cell density. The cells were transfected with 0.1 μg plasmids of indicated integrins. After 48 hours, the cells were re-split to indicated dose of vitronectin-coated plates. Cells were incubated with culture medium for 3 hours. Cells were lysed to detect the indicated protein level using immunoblot analysis. FIG. 15C and FIG. 15D show the immunoblot data. Cells were treated and analyzed as FIG. 14B except using plasmids encoding integrin α5/β1 or integrin α11/β1 (FIG. 15C) integrin αV/β1(FIG. 15D).
MLO-Y4 cells were treated and analyzed as described in FIG. 5A with addition of pretreatment of control RGD peptide, cyclo RGDyK (cRGDyK), or SB273005. […] HEK293 cells were treated and analyzed as described in FIG. 14B except the treatment of different dose of cyclo RGDyK. […] 8 weeks old male mice were treated and analyzed as described in FIG. 5D except the additional group with co-injection of 1 mg/kg SB273005. […]
Cells were harvested in RIPA buffer containing protease-inhibitor cocktail and phosphataseinhibitor cocktail. […] Protein levels were analyzed via western blot using indicated antibody. […]

T1 sequence (P06756 31-889 limits assumed): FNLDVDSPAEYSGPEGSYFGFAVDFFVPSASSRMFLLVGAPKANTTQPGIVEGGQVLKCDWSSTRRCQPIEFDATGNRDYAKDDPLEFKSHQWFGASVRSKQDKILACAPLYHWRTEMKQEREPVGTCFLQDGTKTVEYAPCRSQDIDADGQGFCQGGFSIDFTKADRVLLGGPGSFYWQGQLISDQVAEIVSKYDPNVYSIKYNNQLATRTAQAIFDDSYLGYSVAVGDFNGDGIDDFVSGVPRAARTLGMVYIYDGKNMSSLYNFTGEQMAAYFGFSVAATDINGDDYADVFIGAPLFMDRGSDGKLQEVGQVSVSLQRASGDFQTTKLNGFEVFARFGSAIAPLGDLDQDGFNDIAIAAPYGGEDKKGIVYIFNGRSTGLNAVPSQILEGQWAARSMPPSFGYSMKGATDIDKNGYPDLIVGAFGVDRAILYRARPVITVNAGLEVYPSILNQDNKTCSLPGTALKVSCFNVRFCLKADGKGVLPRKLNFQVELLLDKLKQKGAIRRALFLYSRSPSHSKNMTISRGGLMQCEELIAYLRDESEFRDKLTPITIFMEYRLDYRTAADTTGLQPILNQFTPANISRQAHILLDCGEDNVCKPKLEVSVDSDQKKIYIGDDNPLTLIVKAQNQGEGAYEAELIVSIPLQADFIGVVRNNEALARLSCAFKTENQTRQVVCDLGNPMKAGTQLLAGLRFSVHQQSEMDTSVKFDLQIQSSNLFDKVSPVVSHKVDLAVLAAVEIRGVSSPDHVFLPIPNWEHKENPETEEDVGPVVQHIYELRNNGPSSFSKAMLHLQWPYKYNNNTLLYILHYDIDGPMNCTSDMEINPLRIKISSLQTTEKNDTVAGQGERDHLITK
T1 sequence (P06756 891-1048 partner limits assumed): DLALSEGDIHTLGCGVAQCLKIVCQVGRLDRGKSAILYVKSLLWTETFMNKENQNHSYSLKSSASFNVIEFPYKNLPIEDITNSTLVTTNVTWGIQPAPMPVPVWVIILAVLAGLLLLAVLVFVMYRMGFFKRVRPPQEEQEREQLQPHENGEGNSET
T1 sequence (P18084 24-799): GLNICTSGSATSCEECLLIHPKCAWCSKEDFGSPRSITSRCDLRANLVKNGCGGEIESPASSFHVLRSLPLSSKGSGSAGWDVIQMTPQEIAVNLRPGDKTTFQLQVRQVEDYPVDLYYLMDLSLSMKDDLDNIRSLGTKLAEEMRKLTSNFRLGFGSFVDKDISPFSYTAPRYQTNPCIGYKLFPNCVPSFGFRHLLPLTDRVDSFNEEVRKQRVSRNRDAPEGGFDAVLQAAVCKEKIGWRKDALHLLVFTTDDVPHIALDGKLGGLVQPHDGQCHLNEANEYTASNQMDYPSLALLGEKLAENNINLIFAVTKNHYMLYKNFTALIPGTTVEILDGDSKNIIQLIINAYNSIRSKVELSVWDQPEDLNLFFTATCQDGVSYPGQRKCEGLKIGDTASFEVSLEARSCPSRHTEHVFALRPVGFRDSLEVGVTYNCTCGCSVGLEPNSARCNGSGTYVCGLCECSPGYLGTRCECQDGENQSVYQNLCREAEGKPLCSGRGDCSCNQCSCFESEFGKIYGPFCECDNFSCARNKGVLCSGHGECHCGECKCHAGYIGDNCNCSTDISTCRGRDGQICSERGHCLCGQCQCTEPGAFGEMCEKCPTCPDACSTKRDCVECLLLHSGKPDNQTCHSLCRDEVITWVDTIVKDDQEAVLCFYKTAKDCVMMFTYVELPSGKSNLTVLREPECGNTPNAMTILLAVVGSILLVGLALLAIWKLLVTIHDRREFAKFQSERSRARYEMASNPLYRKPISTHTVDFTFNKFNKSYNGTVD

N=C(N)NCCC[C@@H]1NC(=O)[C@H](CCCCN)NC(=O)[C@@H](Cc2ccc(O)cc2)NC(=O)[C@H](CC(=O)O)NC(=O)CNC1=O [cyclo RGDyK]
effect on irisin-induced phosphorylation of FAK (HEK293T integrin αV/β5, 10 nM cyclo RGDyK): prevented phosphorylation of FAK significantly | effect on irisin-induced phosphorylation of FAK (HEK293T integrin αV/β5, 100 nM cyclo RGDyK): blocked the phosphorylation completely | IC50 (HEK293T with forced expression of integrin αV/β5, in the presence of irisin, from immunoblot, read-out: IC50 for blocking irisin-integrin αV/β5 signaling (phosphorylation of FAK)): 10 to 50 nM
